Source: US10851069B2, “Compositions of crystallized hydrophobic compounds and methods of making and using same” (Massachusetts Institute of Technology, priority 2016, dated 2020)

Legend:
C57BL/6 mice = assay: Naked (non-encapsulated) drug crystals injected IP with 500 μm alginate spheres, 2 weeks; type: in vivo
Procedure: Naked crystals of GW2580 or saline-only (no drug control) were delivered intraperitoneally along with 500 μm alginate spheres for 2 weeks to C57BL/6 mice. […] Brightfield and fluorescence imaging was used to emphasize the respective presence or lack of fibrotic overgrowth on retrieved alginate spheres from either saline (control) or crystalline GW2580 treatment groups (FIG. 17C). […] GW2580 crystal testing (at doses of 0.5 and 5 mg/SC site) was also extended into the SC implant space with other immunogenic materials, ceramic glass (GL) and polymer polystyrene (PS). […] All animal protocols were approved by the MIT Committee on Animal Care, and all surgical procedures and post-operative care was supervised by MIT Division of Comparative Medicine veterinary staff. Immune-competent male non-diabetic or STZ-induced diabetic C57BL/6 mice (Jackson Laboratory, Bar Harbor, Me.) were anesthetized with 3% isoflurane in oxygen and had their abdomens shaved and sterilized using betadine and isopropanol. Preoperatively, all mice also received a 0.05 mg/kg dose of buprenorphine subcutaneously as a pre-surgical analgesic, along with 0.3 mL of 0.9% saline subcutaneously to prevent dehydration. A […] incision was made along the midline of the abdomen and the peritoneal lining was exposed using blunt dissection. The peritoneal wall was then grasped with forceps and a 0.5-1 mm incision was made along the linea alba. A desired volume of spheres (all materials without islets, as well as SLG20 spheres encapsulating rat islets) were then loaded into a sterile pipette and implanted into the peritoneal cavity through the incision. The incision was then closed using 5-0 taper-tipped polydioxanone (PDS II) absorbable sutures. The skin was then closed over the incision using a wound clip and tissue glue. At desired time points post-implantation or transplantation (with encapsulated islets), as specified in figures, mice were euthanized by CO2 administration, followed by cervical dislocation. In certain instances, 5 ml of ice cold PBS was first injected in order perform an intraperitoneal lavage to rinse out and collect free-floating intraperitoneal immune cells. An incision was then made using the forceps and scissors along the abdomen skin and peritoneal wall, and intraperitoneal lavage volumes were pipetted out into fresh 15 ml falcon tubes (each prepared with 5 ml of RPMI cell culture media). Next, a wash bottle tip was inserted into the abdominal cavity. KREBS buffer was then used to wash out all material spheres from the abdomen and into petri dishes for collection. After ensuring all the spheres were washed out or manually retrieved (if fibrosed directly to intraperitoneal tissues), they were transferred into 50 mL conical tubes for downstream processing and imaging. After intraperitoneal lavage and sphere retrieval, remaining fibrosed intraperitoneal tissues were also excised for downstream FACS and expression analyses. Single-cell suspensions of freshly excised tissues were prepared using a gentle MACS Dissociator (Miltenyi Biotec, Auburn, Calif.) according to the manufacturer's protocol. Single-cell suspensions were prepared in a passive PEB dissociation buffer (1×PBS, pH 7.2, 0.5% BSA, and 2 mM EDTA) and suspensions were passed through 70 μm filters (Cat. #22363548, Fisher Scientific, Pittsburgh, Pa.). This process removed the majority of cells adhered to the surface (>90%). […]

[1] = system: inflammatory macrophage markers Sphk1, TNFα, Arg1, IL1; assay: NanoString multiplexed gene expression analysis of retrieved capsules; type: in vivo, C57BL/6 mice; conditions: amorphous drug-loaded capsules, 2 weeks IP; CSF1R-targeting agents compared
Procedure: RNAs for mock-implanted (mock) controls, or for various drug-loaded 0.5 mm diameter alginate sphere-bearing mice (n=4/group) were isolated from tissue samples taken at various time points after implantation, as described. Respective RNAs were quantified, diluted to the appropriate concentration (100 ng/μl), and then 500 ng of each sample was processed according to NanoString manufacturer protocols for expression analysis via our customized multiplexed gene mouse macrophage subtyping panel. RNA levels (absolute copy numbers) were obtained following nCounter (NanoString Technologies Inc., Seattle, Wash.) quantification, and group samples were analyzed using nSolver analysis software (NanoString Technologies Inc., Seattle, Wash.).

COc1ccc(COc2ccc(Cc3cnc(N)nc3N)cc2OC)cc1 [GW2580, 5-[[3-Methoxy-4-[(4-methoxyphenyl)methoxy]phenyl]methyl]-2,4-pyrimidinediamine]
crystals in IP lavage liquid (differential interference contrast imaging) (C57BL/6 mice; 2 weeks after implantation, 1 week since last crystal injection): many crystals remained within the IP space
fibrosis of retrieved alginate microspheres (phase contrast) (C57BL/6 mice; daily amorphous drug, 3 mg/day, total 45 mg over 2 weeks): fibrosis-free
macrophage levels on microspheres (FACS) (C57BL/6 mice; naked crystals, 2 weeks): significant reductions in macrophage levels
fibrosis of retrieved alginate microspheres (phase contrast) (C57BL/6 mice; naked drug crystals, 4.5 mg once per week, 9 mg total): fibrosis-free
fibrosis of retrieved alginate microspheres (phase contrast) (C57BL/6 mice; weekly amorphous drug): not effective
gene expression responses [1]: almost identical gene expression responses
